Experimental data reported in the supplement of paper PMC5579334.
± gives the standard deviation of the averaged measurements.

Experiments:
[1] = tested on: HS-PSS; test: % inhibition of CellTiter-Glo viability at highest tested concentration (72 h), relative to DMSO and benzethonium chloride controls; higher = more inhibition
Procedure, shortened: (§1)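 MPNST cell lines and primary human Schwann cells were seeded at 750–1000 cells per well into 384-well plates preprinted with each compound at five concentrations in 10-fold steps, then incubated 72 h at 37 °C, 5% CO2. CellTiter-Glo ATP luminescence gave viability, scaled between vehicle and positive-control wells, with duplicates averaged where present. Curves were fitted with a four-parameter logistic model. Percent inhibition refers to the top concentration, while drug sensitivity score and relative IC50, censored at the top concentration, come from these fits.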

[2] = tested on: HSC1 (primary human Schwann cells); test: as above
Procedure, shortened: as §1

[3] = tested on: ST8814; test: as above
Procedure, shortened: as §1

[4] = tested on: HSC2 (primary human Schwann cells); test: as above
Procedure, shortened: as §1

[5] = tested on: S1507-2; test: as above
Procedure, shortened: as §1

[6] = tested on: S462; test: as above
Procedure, shortened: as §1

[7] = tested on: YST-1; test: as above
Procedure, shortened: as §1

[8] = tested on: STS26T; test: as above
Procedure, shortened: as §1

[9] = tested on: HS-Sch-2; test: as above
Procedure, shortened: as §1

[10] = tested on: HS-PSS; test: drug sensitivity score (DSS, CellTox-Green cytotoxicity, 72 h) (DSS (dimensionless)); higher = more cytotoxic; extreme values may be limits of the assay
Procedure, shortened: (§2)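 For 72 h at 37 °C, MPNST cell lines and primary human Schwann cells were exposed in 384-well plates to five 10-fold compound dilutions. CellTox-Green, added before seeding at a final 1:1000 dilution, gave fluorescence from DNA released by disrupted cells. Signals were scaled to vehicle and positive-control wells, cultures failing plate quality control were left out, and four-parameter logistic fits were applied. Relative IC50 and drug sensitivity score were derived from the fits, with IC50 censored at the top concentration.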

[11] = tested on: HSC1 (primary human Schwann cells); test: as above
Procedure, shortened: as §2

[12] = tested on: ST8814; test: as above
Procedure, shortened: as §2

[13] = tested on: HSC2 (primary human Schwann cells); test: as above
Procedure, shortened: as §2

[14] = tested on: S1507-2; test: as above
Procedure, shortened: as §2

[15] = tested on: STS26T; test: as above
Procedure, shortened: as §2

[16] = tested on: HS-PSS; test: drug sensitivity score (DSS, CellTiter-Glo viability, 72 h) (DSS (dimensionless)); higher = more sensitive; extreme values may be limits of the assay
Procedure, shortened: as §1

[17] = tested on: HSC1 (primary human Schwann cells); test: as above
Procedure, shortened: as §1

[18] = tested on: ST8814; test: as above
Procedure, shortened: as §1

[19] = tested on: HSC2 (primary human Schwann cells); test: as above
Procedure, shortened: as §1

[20] = tested on: S1507-2; test: as above
Procedure, shortened: as §1

[21] = tested on: S462; test: as above
Procedure, shortened: as §1

[22] = tested on: YST-1; test: as above
Procedure, shortened: as §1

[23] = tested on: STS26T; test: as above
Procedure, shortened: as §1

[24] = tested on: HS-Sch-2; test: as above
Procedure, shortened: as §1

| Compound | % inhibition [1] [%] | % inhibition [2] [%] | % inhibition [3] [%] | % inhibition [4] [%] | % inhibition [5] [%] | % inhibition [6] [%] | % inhibition [7] [%] | % inhibition [8] [%] | % inhibition [9] [%] | drug sensitivity score [10] | drug sensitivity score [11] | drug sensitivity score [12] | drug sensitivity score [13] | drug sensitivity score [14] | drug sensitivity score [15] | drug sensitivity score [16] | drug sensitivity score [17] | drug sensitivity score [18] | drug sensitivity score [19] | drug sensitivity score [20] | drug sensitivity score [21] | drug sensitivity score [22] | drug sensitivity score [23] | drug sensitivity score [24] |
| --- | --- | --- | --- | --- | --- | --- | --- | --- | --- | --- | --- | --- | --- | --- | --- | --- | --- | --- | --- | --- | --- | --- | --- | --- |
| CC(C)C[C@@H](C(=O)N[C@H](C(=O)OC1CCCC1)c1ccccc1)[C@H](O)C(=O)NO [Tosedostat] (max concentration tested 10000 nM) | 25 | 50.1 | 28 | 54.6 | 26.2 ± 6.2 | 55 ± 3.6 | 28.4 | 74.9 | 64.9 | 0 | 0 | 2.29 | 0 | 10.4 ± 9.7 | 28.6 | 0.92 | 9.82 | 2.24 | 12.3 | 3.83 ± 0.36 | 8.03 ± 0.91 | 4.41 | 18.2 | 11 |
| O=C(O)CCCCC(CCSCc1ccccc1)SCc1ccccc1 (centres undefined) [CPI-613] (max concentration tested 10000 nM) | 17 | -3.11 | 0.691 | -1.05 | -8.09 ± 10 | -9.93 ± 9.6 | 14.3 | -2.54 | -6.28 | 0 | 0 | 0 | 0 | 0.502 ± 0.71 | 0 | 0.36 | 0 | 0 | 0 | 0 | 0 | 0.06 | 0 | 0 |
| N#CCNC(=O)c1ccc(-c2ccnc(Nc3ccc(N4CCOCC4)cc3)n2)cc1 [Momelotinib] (max concentration tested 10000 nM) | 49.2 | 76.8 | 41.6 | 81.2 | 67.1 ± 11 | 74.7 ± 4.7 | 55.4 | 58.8 | 60.3 | 0 | 0.946 | 0 | 1.87 | 0.683 ± 0.4 | 0 | 3.21 | 7.64 | 3.16 | 8.06 | 3.09 ± 0.61 | 4.7 ± 0.25 | 5.7 | 3.24 | 5.45 |
| CCc1cnn2c(NCc3ccc[n+]([O-])c3)cc(N3CCCC[C@H]3CCO)nc12 [Dinaciclib] (max concentration tested 1000 nM) | 84.2 | 83.5 | 80.5 | 86.4 | 76.6 ± 1.6 | 90.8 ± 2.7 | 99.5 | 92.7 | 101 | 5.02 | 5.96 | 5.45 | 7.57 | 2.29 ± 3.1 | 14.8 | 21 | 16.9 | 15 | 19.9 | 15 ± 1.9 | 24.4 ± 0.71 | 25.2 | 21.6 | 25.1 |
| CC[C@]1(O)C[C@@H]2CN(CCc3c([nH]c4ccccc34)[C@@](C(=O)OC)(c3cc4c(cc3OC)N(C)[C@H]3[C@@](O)(C(=O)OC)[C@H](OC(C)=O)[C@]5(CC)C=CCN6CC[C@]43[C@@H]65)C2)C1 [Vinblastine] (max concentration tested 1000 nM) | 67.2 | 76 | 84.7 | 87 | 81.1 ± 2.3 | 93.02 ± 0.22 | 83.8 | 92.4 | 91.9 | 1.24 | 10.7 | 31.1 | 21.5 | 19.7 ± 1.8 | 32.9 | 16.2 | 19.5 | 26.8 | 23.9 | 22.63 ± 0.18 | 29.53 ± 0.036 | 24.8 | 30.1 | 30 |
| Nc1nc(NC2CC2)cc(-c2cccc(Cl)c2Cl)n1 [TH588] (max concentration tested 25000 nM) | 35.1 | 55 | 100 | 67 | 78.2 | 98.2 | 79.4 | 102 | 87.8 | 0 | 4.29 | 7.43 | 4.06 | 5.61 | 9.84 | 3.03 | 4.07 | 9.42 | 5.92 | 6.86 | 6.18 | 7.77 | 9.6 | 7.91 |
